Experimental data from ChEMBL document CHEMBL1144256, “Potent Kv1.3 inhibitors from correolide-modification of the C18 position” (Bioorg Med Chem Lett, 2005).

Biological target: Potassium voltage-gated channel subfamily A member 3 (Homo sapiens, UniProt P22001)
Assay: Inhibitory activity against voltage-gated potassium channel subunit Kv1.3
Type: functional

Sequence of Potassium voltage-gated channel subfamily A member 3 (P22001 whole entry): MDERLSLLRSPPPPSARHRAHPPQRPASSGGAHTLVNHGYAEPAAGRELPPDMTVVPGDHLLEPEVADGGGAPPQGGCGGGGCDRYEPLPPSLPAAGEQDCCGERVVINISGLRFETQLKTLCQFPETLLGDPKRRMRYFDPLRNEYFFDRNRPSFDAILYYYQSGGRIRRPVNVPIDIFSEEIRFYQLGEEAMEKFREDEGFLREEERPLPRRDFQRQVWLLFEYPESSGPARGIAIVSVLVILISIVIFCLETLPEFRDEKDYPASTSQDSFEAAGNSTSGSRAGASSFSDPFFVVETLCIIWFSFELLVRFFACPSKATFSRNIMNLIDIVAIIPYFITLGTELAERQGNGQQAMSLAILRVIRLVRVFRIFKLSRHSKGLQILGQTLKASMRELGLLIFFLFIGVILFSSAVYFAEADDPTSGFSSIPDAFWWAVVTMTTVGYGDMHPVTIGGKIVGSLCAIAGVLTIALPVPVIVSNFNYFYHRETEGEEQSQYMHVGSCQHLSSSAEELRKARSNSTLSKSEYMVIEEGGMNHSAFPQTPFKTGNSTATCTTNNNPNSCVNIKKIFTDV

- IC50: 35 nM
Compound: COC(=O)C12O[C@@H]1C(=O)CC1(O)C3CC[C@]4(C)C([C@H](OC(C)=O)[C@H](OC(C)=O)[C@@]5([C@@H](C)OC(C)=O)COCC=CC45)[C@@]3(C)[C@H](OC(C)=O)[C@H](OC(C)=O)[C@]12C (stereo partly specified)
